Assay results reported in patent publication US6583164B1, “Antimycotic drug composition” (Takeda Chemical Industries, Ltd., priority 1998, dated 2003).

Tested on: A. fumigatus TIMM1728
Test: Defensive effect against experimental Aspergillosis infection in neutropenic mice (prolonging life)
Type: in vivo
Conditions: CDF1 female mice made neutropenic with cyclophosphamide; intravenous administration, 5 times; survival recorded for 10 days after infection
Description: Method: 6-week-old CDF1 female mice (n=5) were allowed to have neutropenia by intraperitoneally administering 200 mg/kg of cyclophosphamide, and after 4 days, 0.2 ml liquid of frozen and stored A. fumigatus TIMM1728 conidia, diluted 1000-fold, was inoculated into the tail veins of the mice (6×10^4 CFU/mouse). Compound 12 was dissolved in 5% saccharide solution (aqueous glucose solution) and intravenously administered into the mice 5 times, that is, once in 2 hours after the infection and daily twice for 2 days after the infection. The number of living mice was recorded for 10 days after the infection, to evaluate the effect of prolonging their life.

## 4-acetoxymethyl-1-[(2R,3R)-2-(2,4-difluorophenyl)-2-hydroxy-3-[2-oxo-3-[4-(1H-tetrazol-1-yl)phenyl]-1-imidazolidinyl]butyl]-1H-1,2,4-triazolium chloride [Compound 12]
  Defensive effect (ED50): 1.7 mg/kg
